Measured values taken from ChEMBL document CHEMBL6127095, “Isoxazole compounds: Unveiling the synthetic strategy, in-silico SAR & toxicity studies and future perspective as PARP inhibitor in cancer therapy” (Eur J Med Chem, 2024).
≈ marks a conversion by molar mass, not a printed value. Counter-ions that a name gives are not always drawn. Each block holds one compound with its values, some of them ahead of it.

Experiments:
MDA-MB-231 [1] = test: Anticancer activity against human MDA-MB-231 cells assessed as reduction in cell viability measured for 48 hrs by MTT assay; format: functional, cell-based; details: MDA-MB-231, 48 h
MDA-MB-231 [2] = test: Growth inhibition of human MDA-MB-231 cells; format: functional
MCF7 [3] = test: Antitumor activity against human MCF7 cells xenografted in BALB/c nude mouse assessed as tumor growth inhibition at 30 mg/kg, iv administered for 15 days; format: functional; design: scale not given: the % may be the effect or the level left; details: time 15 day
[4] = Toxicity in mouse assessed as lethal dose; details: in vivo
K562 = test: Antiproliferative activity against human K562 cells assessed as reduction in cell viability after 72 hrs by MTT assay; format: functional, cell-based; details: K562, 72 h
[5] = biological target: Epidermal growth factor receptor (Homo sapiens, UniProt P00533); test: Inhibition of EGFR (unknown origin) using TK as substrate incubated for 30 mins by HTRF assay
Chain of Epidermal growth factor receptor (P00533 whole entry): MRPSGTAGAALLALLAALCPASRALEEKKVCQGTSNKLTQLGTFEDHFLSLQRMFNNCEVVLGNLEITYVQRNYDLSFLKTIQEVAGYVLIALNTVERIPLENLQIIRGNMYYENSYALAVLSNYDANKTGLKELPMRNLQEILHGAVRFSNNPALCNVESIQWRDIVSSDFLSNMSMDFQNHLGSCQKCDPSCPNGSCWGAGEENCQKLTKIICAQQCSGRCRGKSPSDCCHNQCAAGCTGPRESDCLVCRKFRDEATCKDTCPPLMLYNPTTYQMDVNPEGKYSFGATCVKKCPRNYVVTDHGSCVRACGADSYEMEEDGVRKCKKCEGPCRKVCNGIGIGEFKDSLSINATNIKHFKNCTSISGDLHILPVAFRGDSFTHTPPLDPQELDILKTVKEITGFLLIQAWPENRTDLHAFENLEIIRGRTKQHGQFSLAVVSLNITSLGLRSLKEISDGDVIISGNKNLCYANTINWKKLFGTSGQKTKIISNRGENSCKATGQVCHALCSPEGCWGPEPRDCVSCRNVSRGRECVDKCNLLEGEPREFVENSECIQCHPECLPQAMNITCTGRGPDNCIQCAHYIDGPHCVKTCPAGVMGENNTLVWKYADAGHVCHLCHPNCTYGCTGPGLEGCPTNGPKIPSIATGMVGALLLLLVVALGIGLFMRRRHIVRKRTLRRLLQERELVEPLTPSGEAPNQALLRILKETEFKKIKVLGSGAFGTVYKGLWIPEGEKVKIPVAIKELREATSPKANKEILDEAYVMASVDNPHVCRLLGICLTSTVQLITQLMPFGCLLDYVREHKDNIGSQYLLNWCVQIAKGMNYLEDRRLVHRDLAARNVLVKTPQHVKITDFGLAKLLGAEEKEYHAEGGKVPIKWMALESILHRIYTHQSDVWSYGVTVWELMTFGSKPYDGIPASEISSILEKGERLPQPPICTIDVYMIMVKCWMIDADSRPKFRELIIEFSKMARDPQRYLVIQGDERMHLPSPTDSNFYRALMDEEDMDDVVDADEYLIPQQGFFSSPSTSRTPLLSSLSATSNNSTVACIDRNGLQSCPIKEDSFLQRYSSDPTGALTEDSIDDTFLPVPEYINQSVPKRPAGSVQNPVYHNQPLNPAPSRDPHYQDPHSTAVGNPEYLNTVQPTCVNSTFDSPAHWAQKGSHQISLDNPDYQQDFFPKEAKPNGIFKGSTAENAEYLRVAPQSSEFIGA

MCF7 [6] = test: Antiproliferative activity against human MCF7 cells assessed as reduction in cell viability incubated for 48 hrs by MTT assay; format: functional, cell-based; details: MCF7, 48 h
PC-3 [7] = test: Antiproliferative activity against human PC-3 cells assessed as reduction in cell viability incubated for 24 hrs by MTT assay; format: functional, cell-based; details: PC-3, 24 h
DU-145 = test: Antiproliferative activity against human DU-145 cells assessed as reduction in cell viability by MTT assay; format: functional, cell-based
HepG2 = test: Antiproliferative activity against human HepG2 cells assessed as reduction in cell viability after 24 hrs by MTT assay; format: functional, cell-based; details: HepG2, 24 h
MCF7 [8] = test: Anticancer activity against human MCF7 cells assessed as inhibition of cell growth incubated for 24 hrs by MTT assay; format: functional, cell-based; details: MCF7, 24 h
PC-3 [9] = test: Anticancer activity against human PC-3 cells assessed as inhibition of cell growth incubated for 24 hrs by MTT assay; format: functional, cell-based; details: PC-3, 24 h
4T1 = test: Cytotoxicity against mouse 4T1 cells assessed as inhibition of cell proliferation incubated for 72 hrs by MTT assay; format: functional, cell-based; details: 4T1, 72 h
Huh-7 = test: Antiproliferative activity against human Huh-7 cells assessed as reduction in cell growth; format: functional, cell-based
Heat shock protein HSP90 = Heat shock protein HSP90 (Homo sapiens, UniProt P07900+P08238); test: Inhibition of HSP90 (unknown origin) ATPase activity; format: protein assay
[10] = biological target: Poly [ADP-ribose] polymerase 1 (Homo sapiens, UniProt P09874); test: Inhibition of PARP-1 (unknown origin)
Chain of Poly [ADP-ribose] polymerase 1 (P09874 whole entry): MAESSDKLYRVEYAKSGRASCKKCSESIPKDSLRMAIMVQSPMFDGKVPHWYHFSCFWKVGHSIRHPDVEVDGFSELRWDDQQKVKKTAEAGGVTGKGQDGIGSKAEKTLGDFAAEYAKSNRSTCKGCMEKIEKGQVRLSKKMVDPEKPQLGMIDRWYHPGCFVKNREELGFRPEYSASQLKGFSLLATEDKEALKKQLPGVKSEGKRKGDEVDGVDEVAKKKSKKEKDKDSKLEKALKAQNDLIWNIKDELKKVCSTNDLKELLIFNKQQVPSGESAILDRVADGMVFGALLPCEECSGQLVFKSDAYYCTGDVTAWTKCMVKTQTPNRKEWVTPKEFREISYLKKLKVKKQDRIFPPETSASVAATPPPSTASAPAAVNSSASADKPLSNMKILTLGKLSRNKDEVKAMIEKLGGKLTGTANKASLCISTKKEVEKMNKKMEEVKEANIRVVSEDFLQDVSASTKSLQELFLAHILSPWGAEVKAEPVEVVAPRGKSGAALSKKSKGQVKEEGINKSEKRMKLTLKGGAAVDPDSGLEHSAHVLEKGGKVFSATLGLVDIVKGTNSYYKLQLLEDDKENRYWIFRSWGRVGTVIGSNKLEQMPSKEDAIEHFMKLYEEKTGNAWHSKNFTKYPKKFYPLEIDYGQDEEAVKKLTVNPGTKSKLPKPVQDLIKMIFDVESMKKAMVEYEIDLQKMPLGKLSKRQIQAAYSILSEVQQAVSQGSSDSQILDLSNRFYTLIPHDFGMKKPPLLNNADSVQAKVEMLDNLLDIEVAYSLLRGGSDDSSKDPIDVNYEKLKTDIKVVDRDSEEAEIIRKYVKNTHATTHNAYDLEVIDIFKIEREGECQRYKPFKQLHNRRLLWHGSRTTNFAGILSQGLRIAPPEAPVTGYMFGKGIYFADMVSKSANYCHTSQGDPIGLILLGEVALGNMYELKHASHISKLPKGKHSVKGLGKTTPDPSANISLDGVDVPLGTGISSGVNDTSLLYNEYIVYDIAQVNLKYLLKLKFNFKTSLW

MCF7 [11] = test: Growth inhibition of human MCF7 cells incubated fro 48 hrs by SRB assay; format: functional
PC-3 [12] = test: Growth inhibition of human PC-3 cells measured for 48 hrs by SRB assay; format: functional

- IC50 (MDA-MB-231 [1]): 100 nM
- GI50 (MDA-MB-231 [2]): 25000 nM
Structure (SMILES): CCc1cc(-c2oncc2-c2ccc(OC)cc2)c(O)cc1OC

Structure (SMILES): CC(=O)c1c(O)c(C)c(O)c2c1OC1=Cc3onc(C)c3C(=O)[C@@]12C
- Activity (MCF7 [3]): 80%

Structure (SMILES): Cc1cc(C[C@@H]2C[C@H]3C(=O)N(C)C4(C[C@H](C)CC[C@H]4C(C)C)N3O2)c(O)c(-n2nc3ccccc3n2)c1 (stereo partly drawn)
- LD50 [4]: 1000 mg/kg

Structure (SMILES): Cc1noc(C)c1-c1cc(Cc2n[nH]c(=O)c3ccccc23)cc(NC(=O)c2ccccc2C(F)(F)F)c1
- LD50 [4]: 500 mg/kg

- IC50 (K562): 20300 nM
Structure (SMILES): Cc1onc([C@@H]2CN(C)C3(C(=O)c4ccccc4C3=O)[C@@]23C(=O)N(C)c2cc(Br)ccc23)c1[N+](=O)[O-]

- IC50 [5]: 200 nM
- IC50 (MCF7 [6]): 2160 nM
Structure (SMILES): COc1c(Cl)cc(-c2noc(-c3cn(Cc4cc(-c5cc(Cl)cc(Cl)c5)no4)c4ccccc34)n2)cc1Cl

- IC50 (PC-3 [7]): 10 nM
Structure (SMILES): COc1cc(-c2nnc(-c3cncc(-c4cc(-c5nccs5)on4)c3)o2)cc(OC)c1OC

- IC50 (DU-145): 5 µg/mL (≈ 18 µM)
Structure (SMILES): COc1ccc(/C=C/C(=O)c2ccno2)c(F)c1OC

- IC50 (HepG2): 770 nM
Structure (SMILES): Cc1ccccc1COc1ccc(-c2noc(C)c2-c2ccc(Cl)cc2)cc1

- IC50 (MCF7 [8]): 2630 nM
- IC50 (PC-3 [9]): 2630 nM
Structure (SMILES): COc1ccc(-c2noc(-c3cccs3)c2C(F)(F)F)cc1OC
- IC50 (4T1): 2630 nM

- IC50 (PC-3 [7]): 10 nM
Structure (SMILES): COc1ccc(-c2nnc(-c3cncc(-c4cc(-c5nccs5)on4)c3)o2)cc1

- IC50 (Huh-7): 700 nM
Structure (SMILES): COc1cc(NC(=O)c2cc(-c3c[nH]c4ccccc34)no2)cc(OC)c1OC

- IC50 (Heat shock protein HSP90): 14000 nM
Structure (SMILES): COc1ccc(-c2noc(NC(=O)c3ccc(F)c(F)c3)c2C#N)c(OC)c1

- IC50 (PC-3 [7]): 10 nM
Structure (SMILES): c1csc(-c2cc(-c3cncc(-c4nnc(-c5nccs5)o4)c3)no2)n1

- IC50 (PC-3 [7]): 10 nM
Structure (SMILES): c1cc(-c2nnc(-c3cncc(-c4cc(-c5nccs5)on4)c3)o2)ccn1

- IC50 [10]: 7500 nM
Structure (SMILES): CCCCCCCCCCc1cc(CCC(N)(CO)CO)on1

- GI50 (MCF7 [11]): 1000 nM
- GI50 (PC-3 [12]): 1000 nM
Structure (SMILES): COc1cccc2c1C(=O)c1c(O)c3c(c(O)c1C2=O)C[C@@](O)(C(=O)CO)C[C@@H]3O[C@H]1C[C@H](N)[C@H](O)[C@H](C)O1 [DOXORUBICIN HYDROCHLORIDE]

Structure (SMILES): c1cnoc1 [ISOXAZOLE]
- IC50 [10]: 10000 nM
